In patent US12428394B2, “2,4-disubstituted pyrimidine derivative, preparation method therefor and use thereof” (CHENGDU ZENITAR BIOMEDICAL TECHNOLOGY CO., LTD., priority 2019, dated 2025):

Assays:
[1] = tested on: MV4-11 cells (FLT3-ITD+/+); assay: Inhibition of cell proliferation by MTT experiment, MV4-11; format: cell-based, human; details: Homo sapiens, MV4-11; MTT, 72 h; read-out: IC50 value on cell proliferation inhibition, MV4-11 FLT3-ITD+/+
Text: (§1) MV4-11, MOLM-13 and SET-2 were used to determine the influence of the test compound of the present invention on the activity of cancer cells. MV4-11 and MOLM-13 were human leukemia cell lines from American Type Culture Collection (ATCC), expressing FLT3 receptor and containing FLT3-ITD mutation; and SET-2 was a primary thrombocythemia cell purchased from Chengdu Bowerston Biotechnology Co., Ltd., China, continuously expressing JAK2 receptor and containing the mutation of V617F.
(§2) MV4-11, MOLM-13 and SET-2 cells were filled in a 96-well petri dish with 100 μL IMDM as the medium, containing 10% fetal bovine serum (100 mL/bottle, purchased from Grassland Lvye Bio-Engineering Materials Co., Ltd. and cryopreserved at −20° C.), and with 10,000-15,000 cells in each well. […] In each group, 3-5 replicate wells were set and incubated in 5% CO2 at 37° C. for 72 h. At the endpoint, 20 μL MTT (5 mg/mL) was added to each well, and the cells were incubated for another 1-3 h.
(§3) After the inhibition rate of each concentration of compound on cell proliferation activity was calculated, the dose-response curve and IC50 value were fitted by Graphpad prism software according to the compound treatment concentrations and corresponding inhibition rates.

[2] = tested on: SET-2 cells (JAK2 V617F); assay: Inhibition of cell proliferation by MTT experiment, SET-2; format: cell-based; details: Homo sapiens, SET-2; MTT, 72 h; read-out: IC50 value on cell proliferation inhibition, SET-2 (V617F)
Text: as §1, §2, §3

[3] = molecular target: T1, FLT3 (Homo sapiens, UniProt P36888); assay: In vitro kinase activity experiment, FLT3; format: biochemical; details: 40 min; inhibition rate of enzyme at 500 nM; measured by Eurofins; read-out: Kinase activity @ 500 nM (%) FLT3
T1 construct: purchased Eurofins
T1 sequence (P36888 27-993): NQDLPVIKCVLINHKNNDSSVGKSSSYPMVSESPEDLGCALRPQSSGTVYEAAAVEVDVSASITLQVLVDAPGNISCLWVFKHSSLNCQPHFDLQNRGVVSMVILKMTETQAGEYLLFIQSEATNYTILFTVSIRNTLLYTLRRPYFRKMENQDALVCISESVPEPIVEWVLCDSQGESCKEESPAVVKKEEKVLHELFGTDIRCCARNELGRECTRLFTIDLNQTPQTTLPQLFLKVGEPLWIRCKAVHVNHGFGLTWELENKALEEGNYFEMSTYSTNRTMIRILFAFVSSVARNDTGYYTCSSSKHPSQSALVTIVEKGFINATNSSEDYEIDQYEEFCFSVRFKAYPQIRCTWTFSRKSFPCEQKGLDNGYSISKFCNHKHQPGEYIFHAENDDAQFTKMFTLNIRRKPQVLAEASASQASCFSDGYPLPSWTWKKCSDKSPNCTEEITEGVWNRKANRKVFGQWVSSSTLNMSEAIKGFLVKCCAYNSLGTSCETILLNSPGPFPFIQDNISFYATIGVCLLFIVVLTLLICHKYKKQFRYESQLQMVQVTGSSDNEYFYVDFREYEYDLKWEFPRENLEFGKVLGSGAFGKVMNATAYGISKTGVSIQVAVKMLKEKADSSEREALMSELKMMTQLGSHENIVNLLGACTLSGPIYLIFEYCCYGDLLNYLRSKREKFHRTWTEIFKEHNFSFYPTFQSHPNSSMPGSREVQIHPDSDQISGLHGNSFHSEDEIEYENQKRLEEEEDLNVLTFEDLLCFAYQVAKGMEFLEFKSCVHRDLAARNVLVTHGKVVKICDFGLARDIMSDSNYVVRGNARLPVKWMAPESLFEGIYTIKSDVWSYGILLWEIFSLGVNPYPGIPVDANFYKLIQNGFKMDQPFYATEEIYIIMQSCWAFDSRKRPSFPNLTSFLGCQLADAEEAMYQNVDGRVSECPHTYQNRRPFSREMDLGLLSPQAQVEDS
Protocol: (§4) Buffer solution ([…], pH 7.0, 0.2 mm EDTA, 10 mM mncl2), kinase to be tested, substrate of kinase to be tested, 10 mM magnesium acetate and γ33P-ATP solution, and compounds with different concentrations were added to a reaction tube in turn, then MgATP was added to initiate the enzyme reaction process, and incubated at room temperature for 40 min. Then, the reaction was terminated with 5 μl of […], and 10 μl of the reaction solution was titrated onto the Filtermat A membrane, washed with 75 mM phosphate solution for three times, each time for 5 min., and then washed with methanol once. Finally, the Filtermat A membrane was dried and the scintillation count was carried out.

[4] = tested on: MOLM-13 cells (FLT3-ITD-/+); assay: Inhibition of cell proliferation by MTT experiment, MOLM-13; format: cell-based, human; details: Homo sapiens, MOLM-13; MTT, 72 h; read-out: IC50 value on cell proliferation inhibition, MOLM-13 FLT3-ITD-/+
Text: as §1, §2, §3

[5] = molecular target: T2, JAK2 (Homo sapiens, UniProt O60674); assay: In vitro kinase activity experiment, JAK2; format: biochemical; details: inhibition rate of enzyme at 500 nM; measured by Eurofins
T2 construct: purchased Eurofins
T2 sequence (O60674 whole entry): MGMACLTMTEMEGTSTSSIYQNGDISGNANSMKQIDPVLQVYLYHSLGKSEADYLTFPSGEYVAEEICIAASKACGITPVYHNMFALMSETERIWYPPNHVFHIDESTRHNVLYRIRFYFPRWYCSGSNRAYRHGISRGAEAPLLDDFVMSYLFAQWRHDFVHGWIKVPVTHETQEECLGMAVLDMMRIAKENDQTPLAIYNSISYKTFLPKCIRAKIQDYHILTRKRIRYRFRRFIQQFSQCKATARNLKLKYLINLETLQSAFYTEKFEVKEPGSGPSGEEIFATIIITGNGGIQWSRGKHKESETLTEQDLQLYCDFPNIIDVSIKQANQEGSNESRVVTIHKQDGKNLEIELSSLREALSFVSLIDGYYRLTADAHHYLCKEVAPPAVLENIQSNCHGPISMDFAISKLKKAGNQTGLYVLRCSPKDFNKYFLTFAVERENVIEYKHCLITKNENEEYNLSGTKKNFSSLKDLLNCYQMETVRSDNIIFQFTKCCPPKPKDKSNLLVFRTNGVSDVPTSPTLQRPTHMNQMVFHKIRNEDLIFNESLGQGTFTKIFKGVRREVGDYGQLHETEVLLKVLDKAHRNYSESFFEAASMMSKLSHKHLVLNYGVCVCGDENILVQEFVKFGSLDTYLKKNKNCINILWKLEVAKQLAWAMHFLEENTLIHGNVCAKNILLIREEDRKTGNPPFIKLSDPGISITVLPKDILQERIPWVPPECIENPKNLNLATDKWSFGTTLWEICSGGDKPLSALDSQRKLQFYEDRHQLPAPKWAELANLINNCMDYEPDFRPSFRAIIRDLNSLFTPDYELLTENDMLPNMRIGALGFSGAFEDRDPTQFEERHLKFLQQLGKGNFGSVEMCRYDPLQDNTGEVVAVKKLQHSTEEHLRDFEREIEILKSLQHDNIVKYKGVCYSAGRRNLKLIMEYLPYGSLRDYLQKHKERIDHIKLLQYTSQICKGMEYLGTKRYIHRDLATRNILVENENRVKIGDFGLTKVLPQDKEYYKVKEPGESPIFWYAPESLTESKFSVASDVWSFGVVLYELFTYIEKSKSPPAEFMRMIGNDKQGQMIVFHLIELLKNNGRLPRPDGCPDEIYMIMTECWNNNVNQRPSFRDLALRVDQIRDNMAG
Protocol: as §4

| SMILES | IC50 [1] [nM] | inhibition at 0.5 µM [3] [%] | IC50 [4] [nM] | Kinase activity @ 500 nM (%) JAK2 [5] [%] | IC50 [2] [nM] |
| --- | --- | --- | --- | --- | --- |
| CC(C)N1CCN(Cc2ccc(Nc3ncc(F)c(-c4ccc(CN5CCCC5)o4)n3)nc2)CC1 [CLJ-1, 5-fluoro-N-(5-((4-isopropylpiperazine-1-yl)methyl)pyridine-2-yl)-4-(5-(pyrrolidine-1-ylmethyl)furan-2-yl) pyrimidine-2-amine] | 100 to 1000 | 33 | 100 to 1000 | 46 | > 1000 |
| CCN1CCN(c2ccc(Nc3ncc(F)c(-c4ccc(CN5CCCC5)o4)n3)nc2)CC1 [CLJ-2] | 100 to 1000 | 25 | 100 to 1000 | 30 | > 1000 |
| CC(C)N1CCN(Cc2ccc(Nc3ncc(F)c(-c4ccc(CN5CCc6ccccc65)o4)n3)nc2)CC1 [CLJ-3, 5-fluoro-4-(5-(dihydroindole-1-ylmethyl)furan-2-yl)-N-(5-((4-isopropylpiperazine-1-yl)methyl)pyridine-2-yl) pyrimidine-2-amine] | 100 to 1000 | 29 | 100 to 1000 | 45 | > 1000 |
| CCCn1cc(-c2nc(Nc3cc(CN4CCCC(C)C4)c(F)cn3)ncc2F)cn1 (stereo not shown) [CLJ-4, 5-fluoro-N-(5-fluoro-4-((3-methylpiperidine-1-yl)methyl)pyridine-2-yl)-4-(1-propyl-1H-pyrazole-4-yl) pyrimidine-2-amine] | 100 to 1000 | 28 | 100 to 1000 | 38 | > 1000 |
| CCCn1cc(-c2nc(Nc3cc(CN4CCN(CC)CC4)c(F)cn3)ncc2F)cn1 [CLJ-5, 5-fluoro-N-(5-fluoro-4-((4-ethylpiperazine-1-yl)methyl)pyridine-2-yl)-4-(1-propyl-1H-pyrazole-4-yl) pyrimidine-2-amine] | 100 to 1000 | 34 | 100 to 1000 | 40 | > 1000 |
| CCCn1cc(-c2nc(Nc3ccc(N4CCN(C)CC4)cc3F)ncc2F)cn1 [CLJ-6, 5-fluoro-N-(2-fluoro-4-(4-methylpiperazine-1-yl)phenyl)-4-(1-propyl-1H-pyrazol-4-yl) pyrimidine-2-amine] | > 1000 | 34 | > 1000 | 30 | > 1000 |
| CCCn1cc(-c2nc(Nc3ccc(N4CCN(C)CC4)c(F)c3)ncc2F)cn1 [CLJ-7, 5-fluoro-N-(3-fluoro-4-(4-methylpiperazine-1-yl)phenyl)-4-(1-propyl-1H-pyrazol-4-yl) pyrimidine-2-amine] | 100 to 1000 | 28 | 100 to 1000 | 38 | > 1000 |
| CCCn1cc(-c2nc(Nc3ccc(N4CCN(CC)CC4)cc3F)ncc2F)cn1 [CLJ-8, 5-fluoro-N-(2-fluoro-4-(4-ethylpiperazine-1-yl)phenyl)-4-(1-propyl-1H-pyrazole-4-yl) pyrimidine-2-amine] | 100 to 1000 | 40 | 100 to 1000 | 30 | > 1000 |
| CCCn1cc(-c2nc(Nc3ccc(N4CCN(CC)CC4)c(F)c3)ncc2F)cn1 [CLJ-9, 5-fluoro-N-(3-fluoro-4-(4-ethylpiperazine-1-yl)phenyl)-4-(1-propyl-1H-pyrazole-4-yl) pyrimidine-2-amine] | 10 to 100 | 20 | 100 to 1000 | 27 | > 1000 |
| CCCCn1cc(-c2nc(Nc3ccc(N4CCN(C)CC4)c(F)c3)ncc2F)cn1 [CLJ-10, 5-fluoro-N-(3-fluoro-4-(4-methylpiperazine-1-yl)phenyl)-4-(1-butyl-1H-pyrazol-4-yl) pyrimidine-2-amine] | > 1000 | 25 | 100 to 1000 | 37 | > 1000 |
| CCCN1CCC(n2cc(-c3nc(Nc4ccc(N5CCN(C)CC5)cc4)ncc3F)cn2)CC1 [CLJ-11, 5-fluoro-N-(4-(4-methylpiperazine-1-yl)phenyl)-4-(1-(1-propylpiperidine-4-yl)-1H-pyrazole-4-yl) pyrimidine-2-amine] | 10 to 100 | 94 | 100 to 1000 | 78 | > 1000 |
| CCCN1CCC(n2cc(-c3nc(Nc4ccc(N5CCN(C)CC5)c(F)c4)ncc3F)cn2)CC1 [CLJ-12, 5-fluoro-N-(3-fluoro-4-(4-methylpiperazine-1-yl)pheny)-4-(1-(1-propylpiperidine-4-yl)-1H-pyrazole-4-yl) pyrimidine-2-amine] | > 1000 | 20 | > 1000 | 27 | > 1000 |

Continued, in another order:

| IC50 [1] [nM] | inhibition at 0.5 µM [3] [%] | IC50 [4] [nM] | Kinase activity @ 500 nM (%) JAK2 [5] [%] | SMILES | IC50 [2] [nM] |
| --- | --- | --- | --- | --- | --- |
| 10 to 100 | 95 | 100 to 1000 | 89 | CCCCN1CCC(n2cc(-c3nc(Nc4ccc(N5CCN(C)CC5)c(F)c4)ncc3F)cn2)CC1 [CLJ-13, 5-fluoro-N-(3-fluoro-4-(4-methylpiperazine-1-yl)phenyl)-4-(1-(1-butylpiperidine-4-yl)-1H-pyrazole-4-yl) pyrimidine-2-amine] | > 1000 |
| 10 to 100 | 94 | 100 to 1000 | 93 | Cc1c(-c2nc(Nc3ccc(N4CCN(C5CCN(C)CC5)CC4)c(F)c3)ncc2F)cnn1C [CLJ-15] | > 1000 |
| 10 to 100 | 95 | 100 to 1000 | 96 | CN1CCN(c2ccc(Nc3ncc(F)c(-c4cnn(C5CCCC5)c4)n3)cc2F)CC1 [CLJ-16, 5-fluoro-N-(3-fluoro-4-(4-methylpiperazine-1-yl)phenyl)-4-(1-cyclopentyl-1H-pyrazol-4-yl) pyrimidine-2-amine] | > 1000 |
| 10 to 100 | 94 | 100 to 1000 | 90 | CCN1CCN(c2ccc(Nc3ncc(F)c(-c4cnn(C5CCCC5)c4)n3)cc2F)CC1 [CLJ-17, 5-fluoro-N-(3-fluoro-4-(4-ethylpiperazine-1-yl)phenyl)-4-(1-cyclopentyl-1H-pyrazole-4-yl) pyrimidine-2-amine] | 100 to 1000 |
| 10 to 100 | 93 | 100 to 1000 | 93 | CN(C)C1CCN(c2ccc(Nc3ncc(F)c(-c4cnn(C5CCCC5)c4)n3)cc2F)CC1 [CLJ-18, 5-fluoro-N-(3-fluoro-4-(4-dimethylaminopiperidine-1-yl)phenyl)-4-(1-cyclopentyl-1H-pyrazole-4-yl) pyrimidine-2-amine] | 100 to 1000 |
